Measurements taken from US6403831B1, “Substituted benzylidene indenyl formamides, acetamides and propionamides” (Cell Pathways, Inc., priority 1996, dated 2002).
pEC50, pIC50: −log10 of the molar value. Marks after values point to notes of the source that are not given here.

Legend:
[1] = test system: human colon carcinoma cell line, SW-480; assay: Growth inhibition, Sulforhodamine B (SRB) protein binding assay; assay type: cell-based; details: SW-480 cell line, six days continuous exposure
Method: These compounds were assayed for their growth inhibitory activity on the human colon carcinoma cell line, SW-480 obtained from ATCC (Rockville, Md.), to ascertain the degree of growth inhibition. Growth inhibition of this cell line is indicative of a benefit on precancerous lesions and neoplasms. The cell line and growth assay employed for these experiments are well characterized, and are used to evaluate the anti-neoplastic properties of NSAIDs. The assay is used by the United States National Cancer Institute in its screening program for new anti-cancer drugs.
Drug stock solutions were made in 100% DMSO then diluted with RPMI media for cell culture testing. All drug solutions were prepared fresh on the day of testing. The cultured cells were obtained at passage #99 and grown in RPMI media supplemented with 5% fetal calf serum, and 2 mM glutamine, 100 U/ml penicillin, 100 U/ml streptomycin, and 0.25 μg/ml amphotericin. The cultures were maintained in a humidified atmosphere of 95% air and 5% CO2 at 37° C. The cultures were passaged at preconfluent densities using a solution of 0.05% trypsin and 0.53 mM EDTA. Cells were plated at 1000 cells/well for 96 well flat-bottom microtiter plates.
Tumor cell growth inhibition was assessed using the Sulforhodamine B (SRB) protein binding assay. In this assay, tumor cells were plated in 96-well plates and treated with drug-containing media for six days (continuous exposure). For each plate, 6 wells were designated as no treatment controls, six wells as vehicle (0.1% DMSO) controls, and the remaining wells for drug dilutions with three wells per drug concentration. At the end of the exposure period, the cells were fixed and stained with sulforhodamine B, a protein binding dye. The dye was then solubilized, and the optical density of the resulting solution was determined on a 96-well plate reader. The mean dye intensity of the treated wells was then divided by the mean dye intensity in the control wells (6 wells of each) to determine the effect of the drug on the cells. Dye intensity is proportional to the number of cells or amount of protein per well. The resultant “percent inhibition” value then represents the degree of growth inhibition caused by the drug.
For each experiment, an IC50 value was determined and used for comparative purposes. This value is equivalent to the concentration of drug needed to inhibit tumor cell growth by 50%. IC50 values were obtained graphically by connecting the mean values for each drug concentration tested. Each experiment included at least three wells per drug concentration. Concentration was plotted on a log scale on the X-axis.

[2] = test system: HT-29 human colon carcinoma cells; assay: Apoptosis by morphology (acridine orange/ethidium bromide, condensed chromatin); assay type: cell-based; details: HT-29 cells
Method: Apoptosis was measured using an assay of cell death based on morphological characteristics of apoptotic cells (i.e., condensed chromatin). Drug preparation and cell culture conditions were the same as for the SRB assay described above, except that HT-29 human colon carcinoma cells were employed/Confluent cultures were established in 12.5 cm^2 flasks by plating 0.5×10^6 cells/flask. The cultures were assayed for apoptosis by fluorescent microscopy following labeling with acridine orange and ethidium bromide. Floating and attached cells were collected by trypsinization and washed three times in PBS. One ml aliquots were centrifuged (3 g). The pellet was resuspended in 25 μl media and 1 μl of a dye mixture containing 100 μg/ml acridine orange and 100 μg/ml ethidium bromide prepared in PBS and mixed gently. Ten μl of mixture was placed on a microscope slide and covered with a 22 mm^2 coverslip and examined under 40×dry objectives using epillumination and filter combination.
An observer blinded to the identity of the treatments scored at least 100 cells per sample. Apoptotic cells were identified by nuclear condensation of chromatin stained by the acridine orange or ethidium bromide.

[3] = biological target: T1, COX I (Ovis aries, UniProt P05979); assay: Cyclooxygenase (COX) inhibition, purified COX; assay type: biochemical; details: purified COX from ram seminal vesicles; for COX I % Inhibition (values marked *): values marked *: 1000 μM test compound; for COX I % Inhibition (100 μM): 100 μM test compound, arachidonic acid 100 μM
T1 construct: The COX was purified form ram seminal vesicles; from tissue; host or cells: ram seminal vesicles
T1 sequence (P05979 25-600): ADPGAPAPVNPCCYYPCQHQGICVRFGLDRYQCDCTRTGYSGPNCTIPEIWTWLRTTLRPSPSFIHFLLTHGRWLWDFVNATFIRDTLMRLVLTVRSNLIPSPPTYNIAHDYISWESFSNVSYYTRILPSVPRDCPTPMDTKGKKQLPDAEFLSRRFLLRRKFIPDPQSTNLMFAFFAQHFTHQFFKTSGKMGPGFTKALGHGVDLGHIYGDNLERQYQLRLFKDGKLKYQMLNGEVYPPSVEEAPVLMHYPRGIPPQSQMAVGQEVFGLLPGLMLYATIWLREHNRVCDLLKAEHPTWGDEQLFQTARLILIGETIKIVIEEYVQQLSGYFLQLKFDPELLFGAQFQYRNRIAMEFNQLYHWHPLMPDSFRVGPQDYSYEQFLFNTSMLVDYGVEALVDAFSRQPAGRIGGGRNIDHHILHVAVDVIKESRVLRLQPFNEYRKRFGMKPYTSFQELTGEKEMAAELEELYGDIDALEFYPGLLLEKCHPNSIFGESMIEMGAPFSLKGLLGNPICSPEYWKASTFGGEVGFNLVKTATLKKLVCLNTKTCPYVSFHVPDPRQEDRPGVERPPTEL
Method: Compounds of this invention, as well as a positive control, sulindac sulfide were to determine whether they inhibited the production of cyclooxygenase (see Table 5 below).
COX catalyzes the formation of prostaglandins and thromboxane by the oxidative metabolism of arachidonic acid. The compounds of this invention were evaluated for inhibitory effects on purified COX. The COX was purified form ram seminal vesicles, as described by Boopathy, R. and Balasubramanian, J. 239:371-377, 1988. COX activity was assayed as described by Evans, A. T., et al., “Actions of cannabis constituents on enzymes of arachidonate metabolism anti-flammatory potential,” Biochem. Pharmacol., 36:2035-2037, 1987. Briefly, purified COX was incubated with arachidonic acid (100 μM) for 2.0 min at 37° C. in the presence or absence of test compounds. The assay was terminated buy the addition of TCA, and COX activity was determined by absorbance at 530 nm.

[4] = test system: SW-480 colon adenocarcinoma cells; assay: Apoptosis by DNA fragmentation (Cell Death Detection ELISA plus); assay type: cell-based, human; details: SW-480 cells, 48 hrs; for pEC50: by software or estimated from effective concentration range; for DNA Fragmentation FS (100 μM): fold stimulation FS=ODmax/ODveh
Method: Apoptosis was also measured based on the amount of fragmented DNA contained in cell lysates. Briefly, SW-480 colon adenocarcinoma cells were plated in 96-well microtitre plates (“MTP”) at a density of 10K cells/well in 180 μl and incubated for 24 hrs. Cells were then treated with 20 μl aliquots of appropriately diluted compound, and allowed to incubate for an additional 48 hrs.
After the incubation, samples were prepared according to the following steps. The MTP was centrifuged (15 min., 1000 rpm) and the supernatant was carefully removed by fast inversion of the MTP. The cell pellents in each well were then resuspended in ^200 μl lysis buffer and incubated for 45 min. at room temperature to lyse the cells. The lysates were then centrifuged (15 min., 1000 rpm) and 20 μl aliquots of the supernatant (=cytoplasmic fraction) were transferred into the streptavidin coated MTP for analysis. Care was taken not to shake the lysed pellets in the MTP (=cell nucleii containing high molecular weight, unfragmented DNA). Samples were analyzed immediately, because storage at 4 C or −20 C reduces the ELISA-signals.
Samples were then processed according to a DNA fragmentation assay protocol, and dose-response curves were generated based on optical density readings. Quantification of DNA was done by a commercially available photometric enzyme-immunoassay manufactured by Mannheim-Boehringer under the name “Cell Death Detection ELISA^plus”. The assay is based on a quantitative sandwich-enzyme-immunoassay-principle using mouse monoclonal antibodies directed against DNA and histones, respectively. This allows the specific determination of mono and oligonucleosomes in the cytoplasmatic fraction of cell lysates. In brief, the assay procedure is as follows. The sample (cell-lysate, serum, culture-supernatant etc.) is placed into a streptavidin-coated MTP. Subsequently, a mixture of anti-histone-biotin and anti-DNA-POD are added and incubated for 2 hours. During the incubation period, the anti-histone antibody binds to the histone-component of the nucleosomes and simultaneously fixes the immunocomplex to the streptavidin-coated MTP via its biotinylation. Additionally, the anti-DNA-POD antibody reacts with the DNA component of the nucleosomes. After removal of unbound antibodies by a washing step, the amount of nucleosomes is quantified by the POD retained in the immunocomplex. POD is determined photometrically with ABTS® (2,2′-Azino-di[3-ethylbenzthiazolin-sulfonat])* as substrate.
Fold stimulation (FS=ODmax/ODveh), an indicator of apoptotic response, was determined for each compound tested. EC50 values were determined either specifically by data analysis software, or by estimates based on the effective concentration range of each compound (ECR=min. effective dose-min. dose to peak effect). These FS and EC50 values for the tested compounds are listed above in Table 6.

Row | SMILES | pIC50 [1] | Morphology % Apoptotic Cells (1 μM) [2] | COX I % Inhibition (values marked *) [3] | pEC50 [4] | DNA Fragmentation FS (100 μM) [4] | COX I % Inhibition (100 μM) [3]
1 | COc1cc(/C=C2/C(C)=C(CC(=O)NCc3ccccc3N)c3cc(F)ccc32)cc(OC)c1OC [Example 34, (Z)-5-fluoro-2-methyl-1-(3,4,5-trimethoxybenzylidene)-3-(N-2-aminobenzyl)-indenylacetamide] | 5.21 | 45% | 31* % | < 5.00 | 2.1 | –
2 | COc1cc(/C=C2/C(C)=C(CC(=O)NCc3cc(F)ccc3F)c3cc(F)ccc32)cc(OC)c1OC [Example 8, (Z)-5-fluoro-2-methyl-1-(3,4,5-trimethoxybenzylidene)-3-(N-2,5-difluorobenzyl)-indenylacetamide] | 6.92 | 48% | – | 6.68 | <2 | <25%
3 | COc1cc(/C=C2/C(C)=C(CC(=O)Nc3ccccc3)c3cc(F)ccc32)cc(OC)c1OC [Example 22, (Z)-5-fluoro-2-methyl-1-(3,4,5-trimethoxybenzylidene)-3-(N-phenyl)-indenylacetamide] | 5.35 | 37% | – | 5.30 | 2.3 | <25%
4 | COc1cc(/C=C2/C(C)=C(CC(=O)NCCCc3ccccc3)c3cc(F)ccc32)cc(OC)c1OC [Example 40, (Z)-5-fluoro-2-methyl-1-(3,4,5-trimethoxybenzylidene)-3-(N-3-phenylpropyl)-indenylacetamide] | < 5.00 | <20% | 34* % | < 5.00 | <2 | –
5 | CCOC(=O)CN(Cc1ccccc1)C(=O)CC1=C(C)/C(=C/c2cc(OC)c(OC)c(OC)c2)c2ccc(F)cc21 [Example 31, (Z)-5-fluoro-2-methyl-1-(3,4,5 trimethoxybenzylidene)-3-(N-benzyl-N-glycinylethyl ester)-indenylacetamide] | 5.28 | 30% | 30* % | < 5.00 | <2 | –
6 | COc1cc(/C=C2/C(C)=C(CC(=O)N(Cc3ccccc3)C(C)O)c3cc(F)ccc32)cc(OC)c1OC (centres unmarked) [Example 47, (Z)-5-fluoro-2-methyl-1-(3,4,5-trimethoxybenzylidene)-3-(N-benzyl-N-(1-hydroxyethyl))-idenylacetamide] | 5.39 | 20% | 37* % | 5.24 | 4.4 | –
7 | C=CCNC(=O)CC1=C(C)/C(=C/c2cc(OC)c(OC)c(OC)c2)c2ccc(F)cc21 [Example 28, (Z)-5-fluoro-2-methyl-1-(3,4,5-trimethoxybenzylidene)-3-(N-allyl)-indenylacetamide] | 6.43 | 35% | – | 6.64 | 2.3 | <25%
8 | COc1cc(/C=C2/C(C)=C(CC(=O)N[C@H](C)c3ccccc3)c3cc(F)ccc32)cc(OC)c1OC [Example 42, (Z)-5-fluoro-2-methyl-1-(3,4,5-trimethoxybenzylidene)-3-(N-(R)-1-phenethyl)-indenylacetamide] | 6.16 | <20% | 49* % | 5.52 | 3.8 | –
9 | COc1cc(/C=C2/C(C)=C(CC(=O)NCc3c(F)c(F)c(F)c(F)c3F)c3cc(F)ccc32)cc(OC)c1OC [Example 51, (Z)-5-fluoro-2-methyl-1-(3,4,5-trimethoxybenzylidene)-3-(N-pentafluorobenzyl)-idenylacetamlde] | 5.65 | 40% | <25* % | < 5.00 | <2 | –
10 | COc1cc(/C=C2/C(C)=C(CC(=O)N[C@H](O)Cc3ccccc3)c3cc(F)ccc32)cc(OC)c1OC [Example 45, (Z)-5-fluoro-2-methyl-1-(3,4,5-trimethoxybenzylidene)-3-(N-(R)-1-hydroxy-2-phenylethyl)-idenylacetamide] | < 5.00 | 40% | 56* % | < 5.00 | 3.4 | –
